# Measured values published in PMC4942819 (Scientific Reports, 2016).
# Read-outs that look alike come from different tables or passages of the source.
# Assays:
# Mycobacterium avium = test: microdilution plate assay, MIC; assay type: cell-based
# Vero cells = test: cytotoxicity, MTT assay; assay type: cell-based; details: Chlorocebus sabaeus
# Protocol: The compounds were examined for toxicity (IC50) using MTT assay. Briefly, cells (3 ~ 5 × 10^3 cells/well) were seeded in a 96-well plate. After 24 h incubation, the cells were treated with various concentrations of drugs for 24, 48, 72 h, respectively. Columns one and two in the assay plates contained-media +0.1% DMSO for a negative control ,Then, 20 μl of a 5 mg/mL MTT solution was added to each well, and the plates were incubated for an additional 2~4 h at 37 °C. The medium was subsequently discarded, and DMSO 150 μL was added to dissolve the formazan. Oscillate 15 min, the OD 570 was measured using a Spectra MAX M5 microplate spectrophotometer (Molecular Devices, CA, USA), and the IC50 values were calculated.
# (§1) Compound MIC was conducted by ShangHai Chempartner Co., Ltd (Shanghai, China) using the microplate Alamar Blue assay (MABA) against Mycobacterium tuberculosis H37Ra (ATCC 25177). Cytotoxicity of tested compounds was assessed on Vero cells.
# MDR-TB clinical isolates = test: microbe, parasite or virus in culture; assay type: cell-based; details: Mycobacterium tuberculosis
# XDR-TB clinical isolates = test: microbe, parasite or virus in culture; assay type: cell-based, Mycobacterium tuberculosis; details: Mycobacterium tuberculosis
# M. tuberculosis H37Rv = test: MABA checkerboard synergy assay; assay type: cell-based, Mycobacterium tuberculosis; details: for MIC: Mycobacterium tuberculosis, H37RV, checkerboard, drug alone, read-out: MIC against H37Rv, MIC alone
# [1] = system: M. tuberculosis Erdman in J774A.1 cells; test: macrophage assay, intracellular activity; assay type: cell-based, Mycobacterium tuberculosis; details: for Fold(log) reduction: decrease of log10 CFU between D7 and treatment group, J774A.1, 0.02 μM (Fig. 2 legend: 0.02 μg/mL)
# Protocol: As described previously, J774A.1 cells were grown in 75-cm2 cell culture flasks in 10% FBS in Dulbecco’s modified Eagle’s medium (DMEM) until confluency. The cells were detached using a cell scraper, and then centrifuged at 200 g for 5 min at room temperature. The cells were incubated at 37 °C under 5% CO2 for 16 h after distributing into 24-well plates containing coverslips. M. tuberculosis Erdman (ATCC 35801) were diluted to a final concentration of 1 × 10^5 to 3 × 10^5 CFU/mL with DMEM after thawing and sonicating from frozen cultures. And 500 ul of the dilution was dispensed to each well of a new 24-well plate. Followed by, J774A.1 cells on coverslips were infected by incubation with M. tuberculosis Erdman at 37 °C for 2 h. Coverslips were then washed with HBSS and transferred to new 24-well plates. The Cultures were treated in triplicate with compounds at 0.02 μM containing DMEM and incubated at 37 °C under 5% CO2 for 16 h. At D 0 (for untreated controls) and after 7 days of incubation, macrophage cells were lysed by addition of 200 μL of 0.25% sodium dodecyl sulfate. The plates were incubated at 37 °C for 10 min, and 200 μL of DMEM was added. The lysate was sampled using a microtube and sonicated for 15 s. Then 1:1, 1:10, 1:100, and 1:1,000 dilutions were plated on 7H11 agar plates and CFU counts determined after 2 to 3 weeks of incubation at 37 °C.
# [2] = pharmacokinetic study in SD rats; assay type: in vivo; details: female, rat, plasma, SD rats
# Protocol: All animal experiments have been approved by the Institutional Animal Care and Treatment Committee of Sichuan University in China and were carried out in accordance with the approved guidelines. SPF female SD rats weighing 180–220 g were used in the pharmacokinetic study. The rats were fasted overnight before dosing. Every treatment group contain 3 rats. Rats were dosed with SKLB-TB1001 or BTZ043 suspension at 5 mg/kg (i.v. and p.o.). Compounds were dissolved in 5% DMSO/10% Solutol HS15 in saline for intravenous injection and suspended in 0.5% CMC for oral administration. Blood was collected from the jugular vein of each animal at the following times after administration of drugs: 0.083, 0.25, 0.5, 1, 2, 4, 6, 8 and 24 h after a single i.v. dosing; and 0.25, 0.5, 1, 2, 4, 6, 8 and 24 h after a single oral dosing. All blood samples were centrifuged at 3000 r/min for 10 min to obtain serum which was then stored at −20 °C. 150 μL of the serum was added to 500 μL of acetonitrile and the mixture was centrifuged at 13000 r/min for 10 min to remove protein. The supernatant was dried and dissolve in 100 μL of acetonitrile, the solution was centrifuged at 13000 r/min for 10 min. The supernatant was moved to a sample bottle for HPLC analysis. Total area under the concentration time curve (AUC), the elimination half-time (t1/2), the peak concentration (Cmax) and the time to reach peak concentration (Tmax) of samples were determined directly from the experimental data using WinNonlin V6.2.1.
# M. tuberculosis Erdman = test: in vivo acute M.tb Erdman infection mouse model; parameters: species or system Mycobacterium tuberculosis; details: BALB/c mice
# [3] = system: Mycobacterium tuberculosis H37Ra (ATCC 25177); test: microplate Alamar Blue assay (MABA), MIC, H37Ra; assay type: cell-based
# Protocol: as §1
compound,measurement,setting,value
"O=[N+]([O-])c1cc(C(F)(F)F)cc2c(=S)nc(N3CCC4(CC3)OCCO4)sc12 [SKLB-TB1001, 8-nitro-2-(1,4-dioxa-8-azaspiro[4.5]decan-8-yl)-6-(trifluoromethyl)-4H-benzo[e][1,3]thiazine-4-thione]",MIC,Mycobacterium avium,32 µg/mL
same,IC50,"Vero cells; Vero, cytotoxicity, read-out: IC50 Vero",> 100 µg/mL
same,IC50,"Vero cells; cytotoxicity on Vero cells, read-out: IC50",> 20 µM
same,MIC,"MDR-TB clinical isolates; read-out: MIC, MDR-TB strain M3",< 0.0156 µg/mL
same,MIC,"MDR-TB clinical isolates; read-out: MIC, MDR-TB strain M4",< 0.0156 µg/mL
same,MIC,"MDR-TB clinical isolates; read-out: MIC, MDR-TB strain M8",< 0.0156 µg/mL
same,MIC,"MDR-TB clinical isolates; read-out: MIC, MDR-TB strain M18",< 0.0156 µg/mL
same,MIC,"XDR-TB clinical isolates; read-out: MIC, XDR-TB strain X15",< 0.0156 µg/mL
same,MIC,"XDR-TB clinical isolates; read-out: MIC, XDR-TB strain X17",< 0.0156 µg/mL
same,MIC,M. tuberculosis H37Rv; 336 h,0.02 µg/mL
same,MIC,M. tuberculosis H37Rv,0.02 µg/mL
same,FICI,M. tuberculosis H37Rv; combination with linezolid,1.34
same,"MIC against H37Rv, MIC in combo.",M. tuberculosis H37Rv; in combination with INH,0.007 µg/mL
same,"MIC against H37Rv, MIC in combo.",M. tuberculosis H37Rv; in combination with LZD,0.013 µg/mL
same,"MIC against H37Rv, MIC in combo.",M. tuberculosis H37Rv; in combination with MOX,0.008 µg/mL
same,FICI,M. tuberculosis H37Rv; in combination with RMP,0.22
same,"MIC against H37Rv, MIC in combo.",M. tuberculosis H37Rv; in combination with RMP,0.001 µg/mL
same,decrease of MIC,M. tuberculosis H37Rv; in the presence of RMP,5 fold
same,FICI,M. tuberculosis H37Rv; in the presence of isoniazid,0.68
same,FICI,M. tuberculosis H37Rv; in the presence of moxifloxacin,0.97
same,"Log10 CFU, intracellular Mtb Erdman","[1]; J774A.1 macrophages, 0.02 μM (Fig. 2 legend: 0.02 μg/mL), 7 days",4.77
same,Fold(log) reduction,[1],2.08 log
same,Fold(log) reduction,[1]; listed as SKLB-1001,2.1 log
same,bioavailability,"[2]; oral, AUC (p.o., 5 mg/kg)/AUC(i.v., 5 mg/kg), read-out: F, absolute oral bioavailability",44.4%
same,half-life,"[2]; po, 5 mg/kg, terminal half-life for elimination",1.45 h
same,AUC,"[2]; po, p.o., 5 mg/kg, t = 0 to infinity, read-out: AUC",847 ng·h/mL
same,Tmax,"[2]; po, p.o., 5 mg/kg, read-out: Tmax",1.13 h
same,Cmax,"[2]; po, p.o., 5 mg/kg, read-out: Cmax",193 ng/mL
same,reduction of M.tb CFU in lungs compared to the vehicle group,M. tuberculosis Erdman; 150 mg/kg daily for 4 weeks,3.4 logs
same,reduction of M.tb CFU in lungs compared to treatment initiation,M. tuberculosis Erdman; 150 mg/kg daily for 4 weeks,0.87 logs
same,"Log10 CFU (SD), bacterial burden in mouse lungs","M. tuberculosis Erdman; Day-36, 150 mg/kg oral daily from day 10",2.84 (2.93)
same,MIC,[3],< 0.1 µM
